Data: patent publication US9120760B2, “Fluoro-homoneplanocin A and nucleoside derivatives, method for the synthesis thereof, and the pharmaceutical compositions comprising the same as an active component for treatment of cancer” (EWHA UNIVERSITY—INDUSTRY COLLABORATION FOUNDATION, priority 2012, dated 2015)

How the values were obtained:
Format in all cases: cell-based
[1] = test system: HCT-116 (colorectal cancer); assay: SRB cell growth inhibition assay, HCT-116; settings: Homo sapiens, 96 hours, read-out: concentration of the drug to inhibit the cell growth by 50%
From the text: (§1) Measurement of the Growth Inhibition Ability Against Cancer Cells
(§2) Human cancer cell strains were obtained through the following paths: OVCAR-3 (ovarian cancer), MCF-7 (hormone dependent breast cancer), MDA-MB-231 (breast cancer), HeLa (cervical cancer), PC3 (prostate cancer), LNCap (prostate cancer), HepG2 (liver cancer), A549 (lung cancer), NCI-H226 (lung cancer), Caki-1 (kidney cancer), SK-MEL-28 (melanoma cancer), HT-29 (colorectal cancer), HCT116 (colorectal cancer) and PANC-1 (pancreas cancer) cells were purchased from American Type Culture Collection (ATCC) (Manassas, Va.); U251(brain tumor) cells were purchased from Riken Institutes, Marunouchi, Tokyo, Japan; MKN-45 (gastric cancer) cells were purchased from DSMZ (Germany); and UMRC2 (kidney cancer) cells were purchased from U.S. National Cancer Institute (Bethesda, Md.).
(§3) MDA-MB-231, HCT116, UMRC2, Caki-1 and PANC-1 cells were cultured in Dulbecco's modified Eagle's medium (“DMEM”, Invitrogen) including 10% FBS, 100 units/mL penicillin-streptomycin (P/S), 10 mM HEPES and 2 mM L-glutamine. All the other cell strains were cultured in RPMI1640 medium (Invitrogen, Carlsbad, Calif.) including 10% fetal bovine serum (FBS), 1 mM sodium pyruvate, 10 mM HEPES, and 100 units/mL penicillin-streptomycin (P/S). All cells were cultured at 37° C. 5% CO2 humid conditions.
(§4) The cell growth inhibition level of the novel compound synthesized using (1S,2R,5S)-5-(6-Aminopurine-9-yl)-4-fluoro-3-hydroxyethyl-cyclopent-3(4)-en-1,2-diol (compound of Formula 1 where X is NH2 and R2 is H) prepared in the above Example 3, (1S,2R,5S)-4-Fluoro-3-hydroxyethyl-5-(uracil-1-yl)-cyclopent-3(4)-en-1,2-diol (Compound 10) prepared in the above Example 4, (1S,2R,5S)-5-(Cytosine-1-yl)-4-fluoro-3-hydroxyethyl-cyclopent-3(4)-en-1,2-diol (Compound 11) prepared in the above Example 5, Fluoro-neplanocin A, and Homoneplanocin A was analyzed by SRB (sulphorhodamine B) assay according to the publicly known method in the literature.
(§5) Human cancer cell strains increased exponentially were divided into the 96-well plates at the density of 2×10^3 to 3×10^3 cells/well and processed with the compounds of the various concentrations in the present invention on the next day. 0.25% DMSO was used as a control group. Three experiments were performed for each process. The cells were fixed with 10% trichloro-acetic acid at 96 hours after processing with the compound and SRB analysis was carried out. Optical density was measured at 530 nm with Benchmark PlusMicroplate Reader (Bio-Rad Laboratories, Hercules, Calif.). The concentration of the drug to inhibit the cell growth by 50% […] was measured with Kaledia Graph (Synergy software, Reading, Pa.).

PC-3 (prostate cancer) = assay: SRB cell growth inhibition assay, PC-3; settings: Homo sapiens, 96 hours, read-out: concentration of the drug to inhibit the cell growth by 50%
From the text: as §1, §2, §3, §4, §5

T47D (breast cancer) = assay: SRB cell growth inhibition assay, T47D; settings: Homo sapiens, 96 hours, read-out: concentration of the drug to inhibit the cell growth by 50%
From the text: [Worded in the source for another cell line; this cell line is reported under the same test.] as §1, §2, §3, §4, §5

SNU638 (gastric cancer) = assay: SRB cell growth inhibition assay, SNU638; settings: Homo sapiens, SNU-638, 96 hours, read-out: concentration of the drug to inhibit the cell growth by 50%
From the text: [Worded in the source for another cell line; this cell line is reported under the same test.] as §1, §2, §3, §4, §5

A549 (lung cancer) = assay: SRB cell growth inhibition assay, A549; settings: Homo sapiens, 96 hours, read-out: concentration of the drug to inhibit the cell growth by 50%
From the text: as §1, §2, §3, §4, §5

K562 (blood cancer) = assay: SRB cell growth inhibition assay, K562; settings: Homo sapiens, 96 hours, read-out: concentration of the drug to inhibit the cell growth by 50%
From the text: [Worded in the source for another cell line; this cell line is reported under the same test.] as §1, §2, §3, §4, §5

| Compound | IC50 [1] [µM] | IC50 (PC-3 (prostate cancer)) [µM] | IC50 (T47D (breast cancer)) [µM] | IC50 (SNU638 (gastric cancer)) [µM] | IC50 (A549 (lung cancer)) [µM] | IC50 (K562 (blood cancer)) [µM] |
| --- | --- | --- | --- | --- | --- | --- |
| O=c1ccn([C@@H]2C(F)=C(CCO)[C@@H](O)[C@H]2O)c(=O)[nH]1 [Compound 10, (1S,2R,5S)-4-Fluoro-3-hydroxyethyl-5-(uracil-1-yl)-cyclopent-3(4)-en-1,2-diol] | > 10 | > 10 | > 10 | > 10 | > 10 | > 10 |
| Nc1ccn([C@@H]2C(F)=C(CCO)[C@@H](O)[C@H]2O)c(=O)n1 [Compound 11, (1S,2R,5S)-5-(Cytosine-1-yl)-4-fluoro-3-hydroxyethyl-cyclopent-3(4)-en-1,2-diol] | > 10 | > 10 | > 10 | > 10 | > 10 | > 10 |
| Nc1ncnc2c1ncn2[C@@H]1C(F)=C(CCO)[C@@H](O)[C@H]1O [Compound of Formula 1, (1S,2R,5S)-5-(6-Aminopurine-9-yl)-4-fluoro-3-hydroxyethyl-cyclopent-3(4)-en-1,2-diol] | 1.1 | 2.39 | 2.83 | 0.37 | 0.62 | 0.13 |
| Nc1ncnc2c1ncn2C1C(F)=C(CO)C(O)C1O (stereo not drawn) [Fluoro-neplanocin A, reference compound] | 1.4 | 3.1 | 3.6 | 1.3 | 2.6 | 2.2 |
| Nc1ncnc2c1ncn2C1C=C(CCO)C(O)C1O (stereo not drawn) [Homoneplanocin A] | > 10 | > 10 | > 10 | > 10 | > 10 | > 10 |
